Source: ChEMBL document CHEMBL4507327 (2021)
pIC50: −log10 of the molar value.

What was measured:
[1] = target: Glucocorticoid receptor (Homo sapiens) (UniProt P04150); details: Compound concentration 10.0 uM
[2] = target: LIM domain kinase 1 (Homo sapiens, UniProt P53667); test: LIMK1(LIM1LGY1) Takeda global kinase panel
[3] = target: Serine/threonine-protein kinase ULK3 (Homo sapiens, UniProt Q6PHR2); test: ULK3(ULK3LGF1) Takeda global kinase panel
[4] = target: Ephrin type-A receptor 4 (Homo sapiens, UniProt P54764); test: EphA4(EPA4LGF1) Takeda global kinase panel
[5] = target: Cyclin-dependent kinase 6 (Homo sapiens, UniProt Q00534); test: CDK6(CDK6CGS1) Takeda global kinase panel
[6] = target: Serine/threonine-protein kinase PAK 5 (Homo sapiens, UniProt Q9P286); test: PAK5(PAK7LGF1) Takeda global kinase panel
[7] = target: Serine/threonine-protein kinase/endoribonuclease IRE1 (Homo sapiens, UniProt O75460); test: IRE1(ERN1PHY1) Takeda global kinase panel
[8] = target: 3-phosphoinositide-dependent protein kinase 1 (Homo sapiens, UniProt O15530); test: PDK1(PDP1LGA1) Takeda global kinase panel
[9] = target: Dual specificity mitogen-activated protein kinase kinase 6 (Homo sapiens, UniProt P52564); test: MKK6 [MAP2K6(M2K6LGF1)] Takeda global kinase panel
[10] = target: TGF-beta receptor type-1 (Homo sapiens, UniProt P36897); test: TGFbetaR1(TGF1LGF1) Takeda global kinase panel
[11] = target: L-type calcium channel, dihydropyridine site (Cav1.2 alpha-1C) (Homo sapiens, UniProt Q13936); test: Inhibition of Calcium Channel L-Type, Dihydropyridine at 10 µM in the Eurofins-Panlabs radioligand binding assay (Eurofins_assay_214600); design: ligand concentration 0.1 nM, non-specific ligand with concentration 1 µM Nitrendipine, incubation time 90 min, incubation temperature 25 °C; details: Wistar, rat, cerebral cortices of rats, probe [3H] Nitrendipine; compound concentration 10 uM; target entry is the homologue from another species
[12] = target: Muscle, skeletal receptor tyrosine-protein kinase (Homo sapiens, UniProt O15146); test: MUSK(MUSKLGY1) Takeda global kinase panel
[13] = target: Myosin light chain kinase family member 4 (Homo sapiens, UniProt Q86YV6); test: SgK085(SG85LGY1) Takeda global kinase panel
[14] = target: Interferon-induced, double-stranded RNA-activated protein kinase (Homo sapiens, UniProt P19525); test: PKR(EIK2LGY1) Takeda global kinase panel
[15] = target: Protein-tyrosine kinase 6 (Homo sapiens, UniProt Q13882); test: Brk(PTK6LGY1) Takeda global kinase panel
[16] = target: Neuropeptide Y receptor type 1 (Homo sapiens) (UniProt P25929); test: Inhibition of Neuropeptide Y Y1 at 10 µM in the Eurofins-Panlabs radioligand binding assay (Eurofins_assay_257010); details: Compound concentration 10.0 uM
[17] = target: Serine/threonine-protein kinase 26 (Homo sapiens, UniProt Q9P289); test: MST4(MST4LGC1) Takeda global kinase panel
[18] = target: Cyclin-dependent kinase 13 (Homo sapiens, UniProt Q14004); test: CHED(CD13PHS1) Takeda global kinase panel
[19] = target: Homeodomain-interacting protein kinase 1 (Homo sapiens, UniProt Q86Z02); test: HIPK1(HIP1LGF1) Takeda global kinase panel
[20] = target: Serine/threonine-protein kinase greatwall (Homo sapiens, UniProt Q96GX5); test: MASTL(MASLLGE1) Takeda global kinase panel
[21] = target: Ephrin type-A receptor 1 (Homo sapiens, UniProt P21709); test: EphA1(EPA1LGY1) Takeda global kinase panel
[22] = target: Tyrosine-protein kinase receptor UFO (Homo sapiens, UniProt P30530); test: Axl(AXL1LGY1) Takeda global kinase panel
[23] = target: Ribosomal protein S6 kinase alpha-6 (Homo sapiens, UniProt Q9UK32); test: RSK4(R6A6LGF1) Takeda global kinase panel
[24] = target: Cyclin-dependent kinase 16 (Homo sapiens, UniProt Q00536); test: PCTAIRE1(CD16SGS1) Takeda global kinase panel
[25] = target: Interleukin-1 receptor type 1 (Homo sapiens) (UniProt P14778); test: Interleukin IL-1 R1 Eurofins-Panlabs radioligand binding assay; design: ligand concentration 0.1 nM; details: Compound concentration 10.0 uM
[26] = target: Death-associated protein kinase 3 (Homo sapiens, UniProt O43293); test: DAPK3(DAP3LGP1) Takeda global kinase panel
[27] = target: Serine/threonine-protein kinase NLK (Homo sapiens, UniProt Q9UBE8); test: NLK(NLK1LGI5) Takeda global kinase panel
[28] = target: Sigma non-opioid intracellular receptor 1 (Homo sapiens) (UniProt Q99720); test: Sigma 1 Eurofins-Panlabs radioligand binding assay; design: ligand concentration 15 nM; details: Compound concentration 10.0 uM
[29] = target: Serine/threonine-protein kinase PINK1, mitochondrial (Homo sapiens, UniProt Q9BXM7); test: PINK1(PIN1PHRE) Takeda global kinase panel
[30] = target: MAP/microtubule affinity-regulating kinase 3 (Homo sapiens, UniProt P27448); test: MARK3(MAR3LGO5) Takeda global kinase panel
[31] = target: Casein kinase I isoform delta (Homo sapiens, UniProt P48730); test: CK1delta(CS1DLGI1) Takeda global kinase panel
[32] = target: Mitogen-activated protein kinase 11 (Homo sapiens, UniProt Q15759); test: p38beta(MP11LGI1) Takeda global kinase panel
[33] = target: Serine/threonine-protein kinase pim-1 (Homo sapiens, UniProt P11309); test: Pim1(PIM1LGP1) Takeda global kinase panel
[34] = target: Myosin light chain kinase 2, skeletal/cardiac muscle (Homo sapiens, UniProt Q9H1R3); test: skMLCK(MYL2LHY1) Takeda global kinase panel
[35] = target: Casein kinase II subunit alpha' (Homo sapiens, UniProt P19784); test: CK2alpha2(C2A2LGK1) Takeda global kinase panel
[36] = target: G protein-coupled receptor kinase 6 (Homo sapiens, UniProt P43250); test: GRK6(GRK6LGP1) Takeda global kinase panel
[37] = target: TGF-beta receptor type-2 (Homo sapiens, UniProt P37173); test: TGFbetaR2(TGF2LGY1) Takeda global kinase panel
[38] = target: Protein kinase C eta type (Homo sapiens, UniProt P24723); test: PKCeta(PRKHLGRA) Takeda global kinase panel
[39] = target: Ribosomal protein S6 kinase alpha-5 (Homo sapiens, UniProt O75582); test: MSK1(R6A5LGY1) Takeda global kinase panel
[40] = target: Eukaryotic translation initiation factor 2-alpha kinase 3 (Homo sapiens, UniProt Q9NZJ5); test: PERK [PEK(EIK3CGQ1)] Takeda global kinase panel
[41] = target: Tyrosine-protein kinase Tec (Homo sapiens, UniProt P42680); test: TEC(TEC1CGD1) Takeda global kinase panel
[42] = target: Dual specificity protein kinase CLK3 (Homo sapiens, UniProt P49761); test: CLK3(CLK3LGY1) Takeda global kinase panel
[43] = target: Serine/threonine-protein kinase 33 (Homo sapiens, UniProt Q9BYT3); test: STK33(ST33LGF1) Takeda global kinase panel
[44] = target: D(3) dopamine receptor (Homo sapiens) (UniProt P35462); details: Compound concentration 10.0 uM
D(3) dopamine receptor (Homo sapiens), sequence (P35462 whole entry): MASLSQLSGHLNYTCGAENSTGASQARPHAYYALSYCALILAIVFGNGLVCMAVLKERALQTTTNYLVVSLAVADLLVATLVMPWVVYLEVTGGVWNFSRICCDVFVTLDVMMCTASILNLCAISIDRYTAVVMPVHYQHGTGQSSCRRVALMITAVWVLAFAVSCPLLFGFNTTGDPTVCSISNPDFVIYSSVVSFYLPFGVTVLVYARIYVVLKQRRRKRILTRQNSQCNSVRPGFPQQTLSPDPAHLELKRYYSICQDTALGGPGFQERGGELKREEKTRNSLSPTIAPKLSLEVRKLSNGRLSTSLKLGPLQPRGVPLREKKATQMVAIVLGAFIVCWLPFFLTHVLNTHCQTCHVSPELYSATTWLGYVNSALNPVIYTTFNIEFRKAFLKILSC

Myosin light chain kinase 2, skeletal/cardiac muscle, sequence (Q9H1R3 whole entry): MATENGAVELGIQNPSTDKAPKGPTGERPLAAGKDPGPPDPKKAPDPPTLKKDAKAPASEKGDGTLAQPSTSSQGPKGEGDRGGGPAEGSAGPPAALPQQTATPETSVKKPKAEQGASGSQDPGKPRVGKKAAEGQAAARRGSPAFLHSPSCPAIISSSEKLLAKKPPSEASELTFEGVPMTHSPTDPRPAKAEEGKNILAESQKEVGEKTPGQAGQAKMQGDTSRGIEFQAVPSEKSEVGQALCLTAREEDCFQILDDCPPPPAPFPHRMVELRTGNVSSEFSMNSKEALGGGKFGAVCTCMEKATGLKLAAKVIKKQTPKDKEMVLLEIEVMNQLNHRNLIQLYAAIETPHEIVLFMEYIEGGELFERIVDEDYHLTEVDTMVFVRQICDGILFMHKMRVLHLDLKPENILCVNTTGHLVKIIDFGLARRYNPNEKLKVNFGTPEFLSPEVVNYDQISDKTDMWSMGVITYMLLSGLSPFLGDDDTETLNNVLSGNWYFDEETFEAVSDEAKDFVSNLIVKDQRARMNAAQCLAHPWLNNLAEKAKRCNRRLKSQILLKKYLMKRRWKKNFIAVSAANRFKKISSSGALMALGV
Death-associated protein kinase 3, sequence (O43293 whole entry): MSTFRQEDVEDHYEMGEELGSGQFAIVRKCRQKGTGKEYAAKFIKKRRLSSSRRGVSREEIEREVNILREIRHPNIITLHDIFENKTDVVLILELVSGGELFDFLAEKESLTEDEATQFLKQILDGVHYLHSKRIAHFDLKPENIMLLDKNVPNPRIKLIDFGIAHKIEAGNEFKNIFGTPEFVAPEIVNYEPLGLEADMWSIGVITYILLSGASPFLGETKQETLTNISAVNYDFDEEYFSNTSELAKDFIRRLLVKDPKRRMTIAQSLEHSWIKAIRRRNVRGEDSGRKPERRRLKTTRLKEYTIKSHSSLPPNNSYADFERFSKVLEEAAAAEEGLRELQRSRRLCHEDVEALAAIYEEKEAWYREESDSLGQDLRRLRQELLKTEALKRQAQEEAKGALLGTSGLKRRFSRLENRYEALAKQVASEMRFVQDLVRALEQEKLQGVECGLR
Mitogen-activated protein kinase 11, sequence (Q15759 whole entry): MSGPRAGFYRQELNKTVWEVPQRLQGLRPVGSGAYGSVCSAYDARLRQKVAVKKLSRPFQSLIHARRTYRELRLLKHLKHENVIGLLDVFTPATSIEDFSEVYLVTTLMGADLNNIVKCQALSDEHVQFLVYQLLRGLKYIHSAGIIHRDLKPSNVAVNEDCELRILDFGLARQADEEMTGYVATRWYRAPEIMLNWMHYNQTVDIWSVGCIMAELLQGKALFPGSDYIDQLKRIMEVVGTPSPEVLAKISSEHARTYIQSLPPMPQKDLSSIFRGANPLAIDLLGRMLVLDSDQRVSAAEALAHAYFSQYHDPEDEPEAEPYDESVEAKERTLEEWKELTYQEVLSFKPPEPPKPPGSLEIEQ
Muscle, skeletal receptor tyrosine-protein kinase, sequence (O15146 whole entry): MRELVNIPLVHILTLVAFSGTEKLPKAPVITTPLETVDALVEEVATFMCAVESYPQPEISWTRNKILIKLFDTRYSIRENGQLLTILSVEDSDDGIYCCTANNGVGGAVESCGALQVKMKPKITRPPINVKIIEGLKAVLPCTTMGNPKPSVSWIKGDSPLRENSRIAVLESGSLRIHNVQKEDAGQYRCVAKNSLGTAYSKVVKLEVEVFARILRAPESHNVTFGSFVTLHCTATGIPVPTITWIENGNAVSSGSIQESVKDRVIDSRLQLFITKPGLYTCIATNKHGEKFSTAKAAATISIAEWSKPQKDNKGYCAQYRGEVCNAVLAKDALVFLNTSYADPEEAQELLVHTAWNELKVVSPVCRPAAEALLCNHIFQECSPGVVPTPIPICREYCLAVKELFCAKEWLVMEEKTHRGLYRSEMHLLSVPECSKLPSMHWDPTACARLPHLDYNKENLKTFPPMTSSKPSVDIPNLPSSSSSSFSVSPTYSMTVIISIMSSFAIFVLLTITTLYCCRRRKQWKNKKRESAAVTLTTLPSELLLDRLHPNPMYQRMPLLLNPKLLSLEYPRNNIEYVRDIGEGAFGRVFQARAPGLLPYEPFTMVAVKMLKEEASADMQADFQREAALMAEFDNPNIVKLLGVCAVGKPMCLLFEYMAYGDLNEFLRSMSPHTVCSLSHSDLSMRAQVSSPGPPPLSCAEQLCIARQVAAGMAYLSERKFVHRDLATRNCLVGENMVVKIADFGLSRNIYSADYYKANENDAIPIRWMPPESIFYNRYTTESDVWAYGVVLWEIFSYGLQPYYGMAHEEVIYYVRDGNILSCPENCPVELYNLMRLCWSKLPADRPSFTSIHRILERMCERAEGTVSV
Sigma non-opioid intracellular receptor 1 (Homo sapiens), sequence (Q99720 whole entry): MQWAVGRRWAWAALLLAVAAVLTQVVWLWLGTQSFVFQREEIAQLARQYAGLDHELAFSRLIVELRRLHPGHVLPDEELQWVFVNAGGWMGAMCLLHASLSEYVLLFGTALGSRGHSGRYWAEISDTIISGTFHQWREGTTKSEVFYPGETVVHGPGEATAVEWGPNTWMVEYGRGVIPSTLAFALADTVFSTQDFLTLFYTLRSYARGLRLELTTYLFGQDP
Ephrin type-A receptor 1, sequence (P21709 whole entry): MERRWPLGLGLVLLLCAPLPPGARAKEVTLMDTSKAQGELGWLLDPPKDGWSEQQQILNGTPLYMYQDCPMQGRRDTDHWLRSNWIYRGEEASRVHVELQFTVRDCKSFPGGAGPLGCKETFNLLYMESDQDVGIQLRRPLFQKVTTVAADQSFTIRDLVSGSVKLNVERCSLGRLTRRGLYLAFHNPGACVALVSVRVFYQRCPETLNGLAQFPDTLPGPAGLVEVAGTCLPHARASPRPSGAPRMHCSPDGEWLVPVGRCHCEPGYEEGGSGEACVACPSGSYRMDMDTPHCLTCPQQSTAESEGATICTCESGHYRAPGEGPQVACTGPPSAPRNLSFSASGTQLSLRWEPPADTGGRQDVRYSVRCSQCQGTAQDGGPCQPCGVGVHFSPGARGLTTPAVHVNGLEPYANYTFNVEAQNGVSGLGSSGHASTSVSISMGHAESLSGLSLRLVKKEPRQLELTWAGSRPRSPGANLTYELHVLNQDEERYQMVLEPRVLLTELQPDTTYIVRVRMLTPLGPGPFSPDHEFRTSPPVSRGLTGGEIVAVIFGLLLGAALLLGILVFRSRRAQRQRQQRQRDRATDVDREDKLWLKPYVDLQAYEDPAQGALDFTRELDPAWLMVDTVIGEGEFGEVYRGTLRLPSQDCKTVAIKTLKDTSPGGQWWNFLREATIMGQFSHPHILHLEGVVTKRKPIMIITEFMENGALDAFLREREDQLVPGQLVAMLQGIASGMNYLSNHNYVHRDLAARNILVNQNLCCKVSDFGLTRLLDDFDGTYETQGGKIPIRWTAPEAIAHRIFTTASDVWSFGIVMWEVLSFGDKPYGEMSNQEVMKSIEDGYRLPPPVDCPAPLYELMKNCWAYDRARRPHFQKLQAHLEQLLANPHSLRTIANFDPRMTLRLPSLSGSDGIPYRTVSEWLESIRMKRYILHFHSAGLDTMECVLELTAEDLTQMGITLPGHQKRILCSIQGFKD
Ribosomal protein S6 kinase alpha-6, sequence (Q9UK32 whole entry): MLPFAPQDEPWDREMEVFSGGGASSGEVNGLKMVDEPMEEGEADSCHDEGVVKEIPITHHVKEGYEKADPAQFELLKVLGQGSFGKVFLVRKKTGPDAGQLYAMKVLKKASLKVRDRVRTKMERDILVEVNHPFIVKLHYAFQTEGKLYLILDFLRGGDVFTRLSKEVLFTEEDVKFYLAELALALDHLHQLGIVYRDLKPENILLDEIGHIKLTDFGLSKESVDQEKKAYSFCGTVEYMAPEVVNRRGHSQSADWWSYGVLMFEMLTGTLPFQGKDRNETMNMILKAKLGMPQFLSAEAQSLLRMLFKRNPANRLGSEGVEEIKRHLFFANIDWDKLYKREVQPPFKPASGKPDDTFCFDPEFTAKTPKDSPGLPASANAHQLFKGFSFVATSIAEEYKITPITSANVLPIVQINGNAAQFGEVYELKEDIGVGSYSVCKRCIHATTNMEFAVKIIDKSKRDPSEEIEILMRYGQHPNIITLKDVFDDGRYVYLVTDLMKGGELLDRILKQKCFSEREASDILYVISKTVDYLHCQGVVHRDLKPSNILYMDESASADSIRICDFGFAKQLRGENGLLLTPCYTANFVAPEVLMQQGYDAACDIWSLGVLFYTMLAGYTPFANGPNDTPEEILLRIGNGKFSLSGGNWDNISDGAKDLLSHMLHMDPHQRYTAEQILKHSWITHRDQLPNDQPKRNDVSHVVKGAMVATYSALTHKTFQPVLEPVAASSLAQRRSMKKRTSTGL
Serine/threonine-protein kinase pim-1, sequence (P11309 whole entry): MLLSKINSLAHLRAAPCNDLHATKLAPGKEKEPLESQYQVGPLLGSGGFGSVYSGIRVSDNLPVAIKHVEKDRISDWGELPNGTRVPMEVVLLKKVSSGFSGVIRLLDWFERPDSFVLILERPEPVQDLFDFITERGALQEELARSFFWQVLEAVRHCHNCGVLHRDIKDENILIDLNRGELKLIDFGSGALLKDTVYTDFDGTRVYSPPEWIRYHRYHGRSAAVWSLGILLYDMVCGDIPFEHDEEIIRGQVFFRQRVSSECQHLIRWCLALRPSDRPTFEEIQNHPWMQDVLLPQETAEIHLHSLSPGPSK

`CN1C(=O)[C@@H](N2CCc3cn(Cc4ccccc4)nc3C2=O)COc2ccccc21` [TP-030-1] gave an inhibition [1] of 5%, a pIC50 [2] of 6.00 and a pIC50 [3] of 6.00. The pIC50 [4] was 6.00, the pIC50 [5] was 6.00 and the pIC50 [6] was 6.00. The pIC50 [7] was 6.00, the pIC50 [8] was 6.00 and the pIC50 [9] was 6.00. The pIC50 [10] was 6.00, the inhibition at 90 min, 10 µM [11] was -18% (not active) and the pIC50 [12] was 6.00. For the same compound, the pIC50 [13] was 6.00, the pIC50 [14] was 6.00 and the pIC50 [15] was 6.00. The inhibition [16] was 4%, the pIC50 [17] was 6.00 and the pIC50 [18] was 6.00. The pIC50 [19] was 6.00, the pIC50 [20] was 6.00 and the pIC50 [21] was 6.00. The pIC50 [22] was 6.00, the pIC50 [23] was 6.00 and the pIC50 [24] was 6.00. The inhibition [25] was -7%, the pIC50 [26] was 6.00 and the pIC50 [27] was 6.00. It also gave an inhibition [28] of 27%, a pIC50 [29] of 6.00 and a pIC50 [30] of 6.00. The pIC50 [31] was 6.00, the pIC50 [32] was 6.00 and the pIC50 [33] was 6.00. The pIC50 [34] was 6.00, the pIC50 [35] was 6.00 and the pIC50 [36] was 6.00. It also gave a pIC50 [37] of 6.00, a pIC50 [38] of 6.00 and a pIC50 [39] of 6.00. The pIC50 [40] was 6.00, the pIC50 [41] was 6.00 and the pIC50 [42] was 6.00. The pIC50 [43] was 6.00 and the inhibition [44] was 8%.

In the case of `CN1C(=O)[C@@H](N2CCc3cn(CC4CCS(=O)(=O)CC4)nc3C2=O)COc2ccccc21` [TP-030n], the inhibition [1] was 3%, the pIC50 [2] was 6.00 and the pIC50 [3] was 6.00. It also gave a pIC50 [4] of 6.00, a pIC50 [5] of 6.00 and a pIC50 [6] of 6.00. For the same compound, the pIC50 [7] was 6.00, the pIC50 [8] was 6.00 and the pIC50 [9] was 6.00. The pIC50 [10] was 6.00, the inhibition at 90 min, 10 µM [11] was -6% (not active) and the pIC50 [12] was 6.00. For the same compound, the pIC50 [13] was 6.00, the pIC50 [14] was 6.00 and the pIC50 [15] was 6.00. For the same compound, the inhibition [16] was -3%, the pIC50 [17] was 6.00 and the pIC50 [18] was 6.00. For the same compound, the pIC50 [19] was 6.00, the pIC50 [20] was 6.00 and the pIC50 [21] was 6.00. It also gave a pIC50 [22] of 6.00, a pIC50 [23] of 6.00 and a pIC50 [24] of 6.00. The inhibition [25] was -9%, the pIC50 [26] was 6.00 and the pIC50 [27] was 6.00. It also gave an inhibition [28] of 11%, a pIC50 [29] of 6.00 and a pIC50 [30] of 6.00. It also gave a pIC50 [31] of 6.00, a pIC50 [32] of 6.00 and a pIC50 [33] of 6.00. It also gave a pIC50 [34] of 6.00, a pIC50 [35] of 6.00 and a pIC50 [36] of 6.00. For the same compound, the pIC50 [37] was 6.00, the pIC50 [38] was 6.00 and the pIC50 [39] was 6.00. It also gave a pIC50 [40] of 6.00, a pIC50 [41] of 6.00 and a pIC50 [42] of 6.00. It also gave a pIC50 [43] of 6.00 and an inhibition [44] of 4%.
